In US9468610B2, “1-aminocyclohexane derivatives for the treatment of hearing loss” (MERZ PHARMA GmbH & CO. KGaA, priority 2007, dated 2016):

Legend:
[1] = test system: subjects with diagnosed hearing loss; test: Double blind placebo controlled pilot trial of neramexane for treatment of hearing loss (Example 1); format: in vivo, human; details: neramexane mesylate up to 75 mg/day, modified release tablets, 16 weeks, versus placebo
Procedure: A hearing threshold level may be defined as the average of the pure tone hearing threshold levels at testing frequencies of 0.25, 0.5, 1, 2 and 4 kHz.
The primary objective of this study is to investigate the safety and efficacy of neramexane mesylate at daily doses of up to 75 mg in the treatment of hearing loss in comparison to placebo.
In order to be eligible to participate in the study, patients must meet the following criteria: • Male or female subjects aged between 18 and 80 years with diagnosed hearing loss of at least mild degree • Signed written informed consent • Female subjects must be at least 2 years post-menopausal or surgically sterile. Women of childbearing potential have to agree to use at least one effective method of contraception.
Visit 1 (screening): After signing the consent form, the subject undergoes a neurological and otological evaluation. […] Patient eligibility for study is evaluated via a check of inclusion/exclusion criteria.
Visit 2 (baseline): The subjects are asked about adverse events and changes in concomitant medication/disease, which events/changes are documented. Subject is evaluated for study eligibility based on a review of the inclusion/exclusion criteria. […]
Primary Outcome • Change from baseline in hearing threshold level of left/right ear (dB) calculated as average of the pure tone hearing level threshold levels at 0.25, 0.5, 1, 2 and 4 kHz. […]

[2] = test system: patients suffering from persistent, subjective uni- or bilateral tinnitus; test: Double-blind, multicenter, randomized, placebo-controlled, parallel-group study in tinnitus patients; pure tone audiogram (Example 2); format: in vivo, human; details: 50 mg-dose group (25 mg immediate release tablets twice daily), after 16 weeks treatment, compared to placebo; FIG. 1
Procedure: Participants received either neramexane mesylate (e.g. 50 mg, as 25 mg immediate release tablets given twice daily) or placebo twice daily for 16 weeks. Neramexane mesylate was uptitrated in weekly steps of 12.5 or 25 mg during a 4-week uptitration period preceding the fixed-dose 12-week treatment period. Treatment was followed by a four week follow-up period.

## CC1(C)CC(C)(C)CC(C)(N)C1 [neramexane, 1-amino-1,3,3,5,5-pentamethylcyclohexane]
[1]
  Secondary outcomes: high frequency hearing threshold, individual frequencies, responders, patient-reported outcome, hearing impairment grade: improvement
[1]; average of pure tone thresholds at 0.25, 0.5, 1, 2 and 4 kHz
  Primary outcomes: change from baseline in hearing threshold level of left/right ear: improvement
[2]
  Individual frequencies (hearing thresholds) on a pure tone audiogram (air conduction), secondary efficacy analysis: trend for a modest treatment effect compared to placebo
